Results reported in US20080008652A1, “Methods and compositions for mediation of immune responses and adjuvant activity” (The Regents of the University of Michigan, priority 2006, published 2008).

What was measured:
[1] = system: peritoneal macrophages and bone marrow-derived macrophages (BMDM); experiment: Cytokine secretion (IL-1β, IL-18, TNFα, IL-6) by stimulated macrophages, ELISA; assay type: cell-based, mouse; conditions: for secretion of IL-1β with brief ATP treatment: ligand 16 h, then 2 mM ATP 30 min; for requirement of endosomal acidification for IL-1β secretion: FIG. 12
caspase-1 = experiment: Caspase-1 activation (pro-caspase-1 processing) in macrophages, Western blotting; assay type: cell-based, mouse; conditions: for proteolytic processing of pro-caspase-1 (mature 20 kDa subunit): WT macrophages, ligand 1-3 h, then ATP 30 min
BMDM = experiment: Cooperation of low-dose LPS with microbial ligands for IL-1β secretion; assay type: cell-based, mouse; conditions: for synergy with LPS for the secretion of IL-1β: WT BMDM, 10 ng ml−1 LPS and 10 ng ml−1 ligand, 24 h
Procedure: Measurements of cytokines. BMDM and peritoneal macrophages were prepared as previously described. Cells were stimulated with various microbial and synthetic ligands for 24 h and the supernatants were analyzed for IL-1β, IL-18, TNFα and IL-6 secretion. The following ligand concentrations were used: FLS-1, Pam3CSKKK4, LPS, lipoteichoic acid, lipid A and MDP were used at 1 μg ml^−1. For analysis of cooperation of LPS with various ligands, 10 ng ml^−1 of LPS and 10 ng ml^−1 of various ligands were used. In some experiments, the macrophages were stimulated with ligands for 16 h and then with medium containing 2 mM ATP (Sigma) for 30 min, washed, and cultured for an additional 5 h. Mouse cytokines were measured in culture supernatants with enzyme-linked immunoabsorbent assay (ELISA) kits (R and D Systems, Minneapolis, Minn.).

[2] = system: IL-1β, IL-6 and TNFα in serum; experiment: Serum cytokines after co-injection of LPS and R837 into mice, ELISA; assay type: in vivo, mouse
Procedure: (200 μg) or LPS plus […] (200 μg each) and levels of IL-1β (a), IL-6 (b) or TNFα (c) in serum were determined by ELISA at the indicated times.

[3] = system: HSA-specific immunoglobulin; experiment: Adjuvant activity: HSA-specific serum immunoglobulin after immunization; assay type: in vivo, mouse
Procedure: Immunization of mice. […] Serum sample were obtained two weeks after the first immunization and one week after the boost, and antigen specific serum immunoglobulin was assessed by ELISA using antibodies against mouse immunoglobulin and isotype controls (Southern Biotechnology).

NF-κB, ERK and p38 = experiment: NF-κB and MAPK (ERK, p38) activation in macrophages, Western blotting; assay type: cell-based, mouse; conditions: R837 5 μg ml-1
mice = experiment: LPS-induced endotoxic shock, survival; assay type: in vivo, mouse; conditions: WT compared with cryopyrin−/− mice; 200 μg or 400 μg LPS
Procedure: Indicated numbers of wild-type and cryopyrin−/− mice (8 to 12 weeks old) were challenged with 200 μg (a) or 400 μg (b) of LPS and the survival over time of each mouse genotype was plotted.

[4] = WT compared with cryopyrin−/− peritoneal macrophages or BMDM, 24 h stimulation, ELISA
[5] = WT compared with cryopyrin−/− macrophages
[6] = WT mice, co-injection of LPS and R837 compared with each alone
[7] = cryopyrin−/− mice, LPS plus R837
[8] = cryopyrin−/− compared with WT mice, R837 100 μg and HSA 50 μg i.p., 2 weeks after immunization
[9] = WT compared with cryopyrin−/− macrophages, R837 stimulation 24 h

lipid A
secretion of IL-1β [1, 4]: induced comparable levels of IL-1β in wild-type (WT) and cryopyrin−/− macrophages
activation of caspase-1 (caspase-1; cryopyrin−/− macrophages): unimpaired in cryopyrin−/− macrophages
synergy with LPS for the secretion of IL-1β (BMDM): not

CCN(CC)CCCC(C)Nc1ccnc2cc(Cl)ccc12 (stereo not shown) [chloroquine]
effect on production of IL-1β induced by bacterial RNA ([1]; treatment of macrophages with chloroquine): did not affect

CC(=O)N[C@H]1C(O)O[C@H](CO)[C@@H](O)[C@@H]1O[C@H](C)C(=O)N[C@@H](C)C(=O)N[C@H](CCC(=O)O)C(N)=O (mixture of isomers) [MDP, muramyl dipeptide]
secretion of IL-1β with brief ATP treatment [1, 5]: did not induce secretion of IL-1β over background levels
secretion of IL-1β [1, 4]: did not induce secretion of IL-1β over background levels
proteolytic processing of pro-caspase-1 (mature 20 kDa subunit) (caspase-1): did not induce proteolytic processing of pro-caspase-1

Pam2CGDPKHPHSF
secretion of IL-1β [1, 4]: induced comparable levels of IL-1β in wild-type (WT) and cryopyrin−/− macrophages

lipoteichoic acid
secretion of IL-1β [1, 4]: induced comparable levels of IL-1β in wild-type (WT) and cryopyrin−/− macrophages
synergy with LPS for the secretion of IL-1β (BMDM): not

CC(C)Cn1cnc2c(N)nc3ccccc3c21 [R837, Imiquimod]
levels of IL-1β in serum ([2]; WT mice, co-administration of R837 and LPS (200 μg each) compared with each alone): higher levels of IL-1β in serum than injection of R837 or LPS alone
serum levels of IL-6 [2, 6]: enhanced
serum levels of TNFα [2, 6]: enhanced
serum levels of IL-6 [2, 7]: Reduced levels
serum levels of TNFα [2, 7]: Reduced levels
enhancement of the LPS response (serum IL-1β) by R837 ([2]; cryopyrin−/− mice, LPS plus R837 200 μg each): abolished in cryopyrin−/− mice
production of antigen specific IgG1 [3, 8]: exhibited a defect
production of antigen specific IgG2a/c [3, 8]: exhibited a defect
production of antigen specific IgG3 [3, 8]: exhibited a defect
requirement of endosomal acidification for IL-1β secretion [1]: not required
production of IL-6: need for cryopyrin [1, 9]: cryopyrin was dispensable
production of TNFα: need for cryopyrin [1, 9]: cryopyrin was dispensable
secretion of IL-1β with brief ATP treatment [1, 5]: Cryopyrin is required
secretion of IL-1β [1, 4]: abrogated
secretion of IL-18 [1, 4]: abrogated
activation of caspase-1 (caspase-1; TLR7- or MyD88-deficient macrophages): proceeded normally
proteolytic processing of pro-caspase-1 (mature 20 kDa subunit) (caspase-1): induced in WT macrophages
activation of caspase-1 (caspase-1; cryopyrin−/− macrophages): abrogated in macrophages lacking cryopyrin
activation of caspase-1 (caspase-1; macrophages lacking ASC): abrogated
activation of NF-κB and MAPKs (NF-κB, ERK and p38; TLR7- and MyD88-deficient macrophages): abolished in TLR7- and MyD88-deficient macrophages
NF-κB, ERK and p38 activation (NF-κB, ERK and p38; WT compared with cryopyrin−/− BMDM): induced comparable levels of NF-κB, ERK and p38 activation in WT and cryopyrin−/− macrophages
enhancement of LPS-mediated IL-1β production (BMDM; cryopyrin−/− macrophages): abrogated in cryopyrin−/− macrophages

lipopolysaccharide [LPS]
requirement of endosomal acidification for IL-1β secretion [1]: not required
secretion of IL-1β [1, 4]: induced comparable levels of IL-1β in wild-type (WT) and cryopyrin−/− macrophages
activation of caspase-1 (caspase-1; cryopyrin−/− macrophages): unimpaired in cryopyrin−/− macrophages
lethality of high doses of LPS (mice): comparable lethality in WT and cryopyrin−/− mice

Pam3CSK4
secretion of IL-1β [1, 4]: induced comparable levels of IL-1β in wild-type (WT) and cryopyrin−/− macrophages

5′-TCCATGACGTTCCTGACGTT-3′ [CpG]
enhancement of HSA-specific IgG responses ([3]; WT compared with cryopyrin−/− mice, CpG 100 μg and HSA 50 μg, boosted 3 weeks later): unaffected by cryopyrin deficiency
synergy with LPS for the secretion of IL-1β (BMDM): not

flagellin
synergy with LPS for the secretion of IL-1β (BMDM): not
